Results from ChEMBL document CHEMBL1201862, “PubChem BioAssay data set” (2004).
Active and inactive are the calls of the source.

How the values were obtained:
[1] = (§1) Counterscreen for antagonists of the orexin 1 receptor (OX1R; HCRTR1): Fluorescence-based cell-based high throughput dose response assay to identify antagonists of the parental CHO cell line. [Related pubchem assays (depositor defined):AID434989, AID435008, AID463079, AID485270, AID492963, AID492964, AID492965, AID493232, AID504699, AID504701]; format: functional
[2] = molecular target: T1, Orexin/Hypocretin receptor type 1 (Homo sapiens, UniProt O43613); experiment: Homogeneous Time Resolved Fluorescence (HTRF)-based cell-based high throughput dose response assay for antagonists of the orexin 1 receptor (OX1R; HCRTR1). [Related pubchem assays (depositor defined):AID434989, AID435008, AID463079, AID485270, AID492963, AID492964, AID492965, AID493232, AID504717, AID504718]; format: functional
T1 sequence (O43613 whole entry): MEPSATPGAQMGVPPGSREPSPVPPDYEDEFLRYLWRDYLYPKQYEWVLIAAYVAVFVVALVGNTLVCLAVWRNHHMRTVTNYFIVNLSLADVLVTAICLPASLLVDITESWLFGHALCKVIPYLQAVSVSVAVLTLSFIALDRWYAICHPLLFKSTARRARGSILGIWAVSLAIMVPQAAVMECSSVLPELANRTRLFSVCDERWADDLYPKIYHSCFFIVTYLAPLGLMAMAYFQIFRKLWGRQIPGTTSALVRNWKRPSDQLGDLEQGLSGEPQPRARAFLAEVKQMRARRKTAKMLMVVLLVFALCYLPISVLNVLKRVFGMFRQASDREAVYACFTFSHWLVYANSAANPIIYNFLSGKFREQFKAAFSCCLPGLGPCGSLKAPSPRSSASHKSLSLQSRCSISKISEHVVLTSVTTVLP

CHO-K1 = experiment: as §1, with “Homogeneous time resolved fluorescence (HTRF)-based” for “Fluorescence-based”, “cell-based” for “cell-based high throughput”, “CHO-K1” for “CHO”; format: functional; conditions: Cricetulus griseus;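 further: potency for inhibition of ATP-stimulated IP1 production as antagonists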
[3] = molecular target: T1, Orexin/Hypocretin receptor type 1; experiment: Fluorescence-based cell-based high throughput dose response assay for antagonists of the orexin 1 receptor (OX1R; HCRTR1). [Related pubchem assays (depositor defined):AID434989, AID435008, AID463079, AID485270, AID492963, AID492964, AID492965, AID493232, AID504717, AID504718]; format: functional
Orexin receptor type 2 [4] = molecular target: T2, Orexin receptor type 2 (Homo sapiens, UniProt O43614); experiment: Counterscreen assay for antagonists of the orexin 1 receptor (OX1R; HCRTR1): Fluorescence-based cell-based dose response assay for antagonists of the orexin 2 receptor (OX2R; HCRTR2), run by assay provider.; format: functional
T2 sequence (O43614 whole entry): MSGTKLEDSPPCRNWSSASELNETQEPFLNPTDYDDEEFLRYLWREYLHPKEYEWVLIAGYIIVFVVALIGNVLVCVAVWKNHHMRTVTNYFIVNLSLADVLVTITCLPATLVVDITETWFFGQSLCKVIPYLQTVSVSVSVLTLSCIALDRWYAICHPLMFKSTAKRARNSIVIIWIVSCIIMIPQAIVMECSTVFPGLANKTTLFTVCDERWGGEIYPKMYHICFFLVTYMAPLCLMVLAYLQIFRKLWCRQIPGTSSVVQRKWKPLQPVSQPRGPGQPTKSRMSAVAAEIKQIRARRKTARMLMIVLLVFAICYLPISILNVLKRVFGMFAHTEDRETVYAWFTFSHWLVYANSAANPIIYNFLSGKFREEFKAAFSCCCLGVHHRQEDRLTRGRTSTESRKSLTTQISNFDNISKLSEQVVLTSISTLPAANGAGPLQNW

Orexin receptor type 2 [5] = molecular target: T2, Orexin receptor type 2; experiment: Counterscreen assay for antagonists of the orexin 1 receptor (OX1R; HCRTR1): Homogeneous Time Resolved Fluorescence (HTRF)-based cell-based dose response assay for antagonists of the orexin 2 receptor (OX2R; HCRTR2), run by assay provider.; format: functional
Melanocortin receptor 4 = Melanocortin receptor 4 (Homo sapiens, UniProt P32245); experiment: inhibitors of MC4R cAMP signaling – cell-based, TR-FRET, biased antagonists, dose response (AID 602298); format: functional;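 further: antagonist potency against agonist-stimulated cAMP production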
[6] = cAMP pathway inhibition in counterscreen cell line – TR-FRET cAMP detection, counter-screen for MC4R biased antagonist project, dose response (AID 602305); format: functional, cell-based;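 further: U2OS cells stimulated with forskolin near its EC80 as the cAMP inducer; potency is for inhibition of forskolin-stimulated cAMP signaling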
[7] = THP-1 cell cytotoxicity, dose response, cytotoxicity control for non-replicating M. tuberculosis project (AID 489025); format: functional
[8] = molecular target: T3, High affinity choline transporter 1 (Homo sapiens, UniProt Q9GZV3); experiment: human choline transporter potentiators, potency – cell-based, 10-point CRC, membrane potential dye, dose response (AID 602376); format: functional
T3 sequence (Q9GZV3 whole entry): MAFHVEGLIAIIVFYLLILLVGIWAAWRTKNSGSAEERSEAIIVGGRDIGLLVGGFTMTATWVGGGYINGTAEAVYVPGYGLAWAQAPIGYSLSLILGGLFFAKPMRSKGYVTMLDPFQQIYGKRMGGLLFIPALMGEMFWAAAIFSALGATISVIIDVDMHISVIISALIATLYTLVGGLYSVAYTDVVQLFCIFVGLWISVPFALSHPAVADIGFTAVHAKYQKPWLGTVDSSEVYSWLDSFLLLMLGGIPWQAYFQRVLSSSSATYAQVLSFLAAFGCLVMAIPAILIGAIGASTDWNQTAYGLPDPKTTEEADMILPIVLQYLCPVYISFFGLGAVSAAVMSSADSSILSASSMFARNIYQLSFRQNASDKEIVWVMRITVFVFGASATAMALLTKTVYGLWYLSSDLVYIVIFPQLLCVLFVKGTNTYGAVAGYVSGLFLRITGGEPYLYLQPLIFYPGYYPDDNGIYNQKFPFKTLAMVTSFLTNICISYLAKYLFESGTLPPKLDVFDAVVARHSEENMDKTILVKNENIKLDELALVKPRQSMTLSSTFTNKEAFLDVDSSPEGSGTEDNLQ

cells = format: functional
Caspase-3 = molecular target: T4, Caspase-3 (Homo sapiens, UniProt P42574); experiment: SAR Analysis of small molecule inhibitors of Sentrin-specific proteases (SENPs) using a Caspase-3 Selectivity assay. [Related pubchem assays (depositor defined):AID2540, AID2599, AID434973, AID489001]; format: functional
T4 sequence (P42574 whole entry): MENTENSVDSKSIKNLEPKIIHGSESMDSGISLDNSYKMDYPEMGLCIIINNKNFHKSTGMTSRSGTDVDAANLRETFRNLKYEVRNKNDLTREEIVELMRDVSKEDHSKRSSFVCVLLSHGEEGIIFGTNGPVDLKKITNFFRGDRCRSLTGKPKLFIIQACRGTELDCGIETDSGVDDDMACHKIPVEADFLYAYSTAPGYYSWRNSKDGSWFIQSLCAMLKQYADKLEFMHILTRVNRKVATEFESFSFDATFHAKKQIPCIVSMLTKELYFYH

[9] = molecular target: T5, Sentrin-specific protease 6 (Homo sapiens, UniProt Q9GZR1); experiment: SAR Analysis of small molecule inhibitors of Sentrin-specific protease 6 (SENP6) using a Luminescent assay. [Related pubchem assays (depositor defined):AID2582, AID2599]; format: functional
T5 sequence (Q9GZR1 whole entry): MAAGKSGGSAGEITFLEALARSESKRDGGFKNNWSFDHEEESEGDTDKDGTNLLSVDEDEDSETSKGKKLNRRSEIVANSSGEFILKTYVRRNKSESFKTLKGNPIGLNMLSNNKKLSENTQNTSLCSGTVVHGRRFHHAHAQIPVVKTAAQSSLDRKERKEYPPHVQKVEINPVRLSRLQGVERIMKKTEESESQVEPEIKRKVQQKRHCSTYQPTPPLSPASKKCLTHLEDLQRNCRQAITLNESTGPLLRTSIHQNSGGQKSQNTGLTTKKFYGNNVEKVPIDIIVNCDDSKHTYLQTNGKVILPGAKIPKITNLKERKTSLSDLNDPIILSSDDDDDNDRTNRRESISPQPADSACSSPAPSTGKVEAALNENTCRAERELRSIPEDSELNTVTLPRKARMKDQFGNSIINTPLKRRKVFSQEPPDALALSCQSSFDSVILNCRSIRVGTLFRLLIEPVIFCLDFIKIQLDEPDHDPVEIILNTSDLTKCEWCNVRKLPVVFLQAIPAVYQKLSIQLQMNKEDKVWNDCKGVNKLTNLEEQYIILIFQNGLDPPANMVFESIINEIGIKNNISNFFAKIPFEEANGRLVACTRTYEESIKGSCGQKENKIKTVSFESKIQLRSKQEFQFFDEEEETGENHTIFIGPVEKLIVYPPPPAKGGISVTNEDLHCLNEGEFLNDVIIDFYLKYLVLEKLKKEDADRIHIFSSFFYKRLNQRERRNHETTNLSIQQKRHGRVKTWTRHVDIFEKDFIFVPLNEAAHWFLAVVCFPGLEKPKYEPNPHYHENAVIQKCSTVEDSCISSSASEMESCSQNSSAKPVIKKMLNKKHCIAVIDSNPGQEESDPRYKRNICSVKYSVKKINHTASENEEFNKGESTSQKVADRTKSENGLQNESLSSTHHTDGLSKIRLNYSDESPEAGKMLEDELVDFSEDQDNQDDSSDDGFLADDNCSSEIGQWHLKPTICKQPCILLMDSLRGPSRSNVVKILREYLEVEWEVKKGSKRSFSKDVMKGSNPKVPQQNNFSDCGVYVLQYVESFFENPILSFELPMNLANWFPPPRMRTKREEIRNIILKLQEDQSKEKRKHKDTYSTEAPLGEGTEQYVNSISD

[10] = molecular target: T6, Sentrin-specific protease 8 (Homo sapiens, UniProt Q96LD8); experiment: inhibition of human SENP8 cleavage activity – biochemical, luminescence, SAR follow-up (AID 504501); format: functional
T6 sequence (Q96LD8 whole entry): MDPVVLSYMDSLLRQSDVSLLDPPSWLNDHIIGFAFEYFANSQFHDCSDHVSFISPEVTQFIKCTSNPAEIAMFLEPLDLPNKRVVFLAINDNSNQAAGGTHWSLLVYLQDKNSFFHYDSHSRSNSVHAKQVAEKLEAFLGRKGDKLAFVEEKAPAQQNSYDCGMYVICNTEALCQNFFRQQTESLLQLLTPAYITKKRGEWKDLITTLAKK

[11] = molecular target: T7, Sentrin-specific protease 7 (Homo sapiens, UniProt Q9BQF6); experiment: inhibition of human SENP7 cleavage activity – biochemical, luminescence, SAR follow-up (AID 504497); format: functional
T7 sequence (Q9BQF6 whole entry): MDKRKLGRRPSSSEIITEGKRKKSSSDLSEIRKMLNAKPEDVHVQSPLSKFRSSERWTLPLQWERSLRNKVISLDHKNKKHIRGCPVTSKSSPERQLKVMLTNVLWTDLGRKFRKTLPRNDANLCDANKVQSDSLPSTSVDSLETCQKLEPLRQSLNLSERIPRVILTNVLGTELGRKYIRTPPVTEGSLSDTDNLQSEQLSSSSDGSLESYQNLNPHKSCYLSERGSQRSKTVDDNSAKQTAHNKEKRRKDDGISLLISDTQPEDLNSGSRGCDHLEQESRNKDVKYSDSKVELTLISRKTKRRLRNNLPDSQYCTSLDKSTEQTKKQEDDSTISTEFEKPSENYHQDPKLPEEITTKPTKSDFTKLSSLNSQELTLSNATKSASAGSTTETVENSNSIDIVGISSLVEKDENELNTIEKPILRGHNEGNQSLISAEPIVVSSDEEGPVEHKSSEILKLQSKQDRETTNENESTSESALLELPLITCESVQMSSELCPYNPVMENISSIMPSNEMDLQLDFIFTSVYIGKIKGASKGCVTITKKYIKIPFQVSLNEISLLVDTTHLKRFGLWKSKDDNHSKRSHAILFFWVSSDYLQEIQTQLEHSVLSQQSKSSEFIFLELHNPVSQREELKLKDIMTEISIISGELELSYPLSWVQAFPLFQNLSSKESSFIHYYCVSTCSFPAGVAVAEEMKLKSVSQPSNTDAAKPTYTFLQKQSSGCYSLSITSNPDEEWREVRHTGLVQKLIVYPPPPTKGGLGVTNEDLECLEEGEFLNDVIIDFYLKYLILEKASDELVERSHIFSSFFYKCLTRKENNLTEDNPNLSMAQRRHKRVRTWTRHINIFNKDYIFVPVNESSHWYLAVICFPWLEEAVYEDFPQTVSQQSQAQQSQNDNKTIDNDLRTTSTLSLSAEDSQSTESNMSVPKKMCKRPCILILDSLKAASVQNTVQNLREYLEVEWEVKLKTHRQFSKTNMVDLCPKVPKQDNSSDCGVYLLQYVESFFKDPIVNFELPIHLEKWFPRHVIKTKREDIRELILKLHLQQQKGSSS

[12] = molecular target: DNA dC->dU-editing enzyme APOBEC-3A (Homo sapiens, UniProt P31941); experiment: SAR analysis of small molecule inhibitors of APOBEC3A DNA Deaminase via a fluorescence-based single-stranded DNA deaminase assay.; format: functional; conditions: read-out: IC50_Mean
[13] = molecular target: DNA dC->dU-editing enzyme APOBEC-3G (Homo sapiens, UniProt Q9HC16); experiment: inhibition of APOBEC3G ssDNA deamination – biochemical, fluorescence, single-stranded DNA substrate, SAR follow-up (AID 602136); format: functional; conditions: read-out: IC50_Mean
Sequence of DNA dC->dU-editing enzyme APOBEC-3G (Q9HC16 whole entry): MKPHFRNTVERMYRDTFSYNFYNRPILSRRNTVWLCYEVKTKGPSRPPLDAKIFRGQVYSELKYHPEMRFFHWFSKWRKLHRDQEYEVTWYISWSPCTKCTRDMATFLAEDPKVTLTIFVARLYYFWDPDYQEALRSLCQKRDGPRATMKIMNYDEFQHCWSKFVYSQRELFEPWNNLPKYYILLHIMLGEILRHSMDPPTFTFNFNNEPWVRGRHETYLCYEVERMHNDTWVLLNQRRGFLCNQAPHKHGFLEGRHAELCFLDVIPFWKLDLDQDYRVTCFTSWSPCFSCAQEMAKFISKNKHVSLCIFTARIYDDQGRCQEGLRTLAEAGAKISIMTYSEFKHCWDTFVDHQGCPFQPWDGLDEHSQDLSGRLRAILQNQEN

Sequence of DNA dC->dU-editing enzyme APOBEC-3A (P31941 whole entry): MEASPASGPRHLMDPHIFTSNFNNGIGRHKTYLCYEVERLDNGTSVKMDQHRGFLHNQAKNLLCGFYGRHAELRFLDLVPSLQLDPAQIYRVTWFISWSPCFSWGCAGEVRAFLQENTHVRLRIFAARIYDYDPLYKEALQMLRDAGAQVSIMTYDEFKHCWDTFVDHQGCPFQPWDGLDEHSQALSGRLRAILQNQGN
Sequence of Melanocortin receptor 4 (P32245 whole entry): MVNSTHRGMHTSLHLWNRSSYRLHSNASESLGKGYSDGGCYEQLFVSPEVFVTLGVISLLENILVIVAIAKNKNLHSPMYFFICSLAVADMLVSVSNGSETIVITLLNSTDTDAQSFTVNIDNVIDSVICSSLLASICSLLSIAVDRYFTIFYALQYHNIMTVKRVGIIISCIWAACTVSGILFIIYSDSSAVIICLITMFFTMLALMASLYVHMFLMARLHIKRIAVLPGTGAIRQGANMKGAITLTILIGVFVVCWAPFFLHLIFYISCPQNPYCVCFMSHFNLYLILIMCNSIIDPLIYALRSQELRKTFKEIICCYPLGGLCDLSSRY

O=C(OCC#CCSc1nnc(-c2cccc3ccccc23)o1)c1cccc2[nH]ccc12
IC50 [1]: > 49.8 µM (inactive)
IC50 [2]: 0.506 µM (active)
IC50 (CHO-K1): > 66.2 µM (inactive)
IC50 [3]: 14 µM (inactive)
IC50 (Orexin receptor type 2 [4]): > 88.8 µM (inactive)
IC50 (Orexin receptor type 2 [5]): 1.39 µM (active)

CN(c1ccc(OCC(=O)OCC(=O)Nc2ccc(Br)cc2)cc1)S(=O)(=O)c1cccs1
IC50 (Melanocortin receptor 4): > 64.6 µM (inactive)
IC50 [6]: > 64.6 µM (inactive)

c1coc(CNc2nc(N3CCCCC3)nc3ccccc23)c1
CC50 [7]: 19.6 µM (active)
EC50 [8]: 1.79 µM (active)
IC50 (cells): 6.64 µM (active)

O=C(NCCCN1CCN(CCCNC(=O)c2cccc(Cl)c2)CC1)c1cccc(Cl)c1
EC50 [8]: 9.44 µM (active)

CCOc1ccc(C(=O)Nc2ccc3ccccc3c2)cc1Cl
IC50 (Caspase-3): > 99 µM (inactive)
IC50 [9]: > 99 µM (inactive)
IC50 [10]: > 99 µM (inactive)
IC50 [11]: > 99 µM (inactive)

COc1cccc(/C=N/NC(=O)c2nnn(-c3nonc3N)c2CN(C)c2ccccc2)c1
IC50 [1]: > 49.7 µM (inactive)
IC50 [2]: 0.513 µM (active)
IC50 (CHO-K1): > 66.2 µM (inactive)
IC50 [3]: 5.95 µM (active)
IC50 (Orexin receptor type 2 [4]): > 88.8 µM (inactive)
IC50 (Orexin receptor type 2 [5]): 5.39 µM (active)

CS(=O)(=O)N1CCC(C(=O)Nc2cc(C(F)(F)F)ccc2N2CCOCC2)CC1
IC50 [12]: > 99 µM (inactive)
IC50 [13]: > 99 µM (inactive)
